Test results reported in PubChem BioAssay AID328 (DTP/NCI, 2004).
Values joined by “and” are separate entries in the source; they are usually repeats but may differ in a detail not shown here. Identical values can stand only once. Toxic doses and inconclusive results are not listed.

Tested on: BDF1 mice, P388 leukemia ip, median survival T/C
Experiment: NCI In Vivo Anticancer Drug Screen. Data for tumor model P388 Leukemia (intraperitoneal) in B6D2F1 (BDF1) mice
Conditions: endpoint: median survival time, higher = longer survival
In short: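 Read-out is survival of treated animals expressed relative to the vehicle group, as a T/C ratio.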

[1] = dose: 100.0 mg/kg/injection, schedule: Q04DX003 (ip), vehicle: saline with Tween-80
[2] = dose: 200.0 mg/kg/injection, schedule: Q04DX003 (ip), vehicle: saline with Tween-80
[3] = dose: 400.0 mg/kg/injection, schedule: Q04DX003 (ip), vehicle: saline with Tween-80
[4] = dose: 50.0 mg/kg/injection, schedule: Q01DX009 (ip), vehicle: saline
[5] = dose: 100.0 mg/kg/injection, schedule: Q01DX009 (ip), vehicle: saline
[6] = dose: 200.0 mg/kg/injection, schedule: Q01DX009 (ip), vehicle: saline
[7] = dose: 200.0 mg/kg/injection, schedule: Q04DX003 (ip), vehicle: saline
[8] = dose: 400.0 mg/kg/injection, schedule: Q01DX009 (ip), vehicle: saline
[9] = dose: 100.0 mg/kg/injection, schedule: Q04DX003 (ip), vehicle: Klucel (hydroxypropylcellulose) (HPC)
[10] = dose: 200.0 mg/kg/injection, schedule: Q04DX003 (ip), vehicle: Klucel (hydroxypropylcellulose) (HPC)
[11] = dose: 400.0 mg/kg/injection, schedule: Q04DX003 (ip), vehicle: Klucel (hydroxypropylcellulose) (HPC)
[12] = dose: 25.0 mg/kg/injection, schedule: Q01DX009 (ip), vehicle: saline with Tween-80
[13] = dose: 50.0 mg/kg/injection, schedule: Q01DX009 (ip), vehicle: saline with Tween-80

## O=Cc1csc2ncccc12
[1]
  T/C: 91 % of control
[2]
  T/C: 100 % of control
[3]
  T/C: 95 % of control

## O=C(NCCCl)NC1C(O)OC(CO)C(O)C1O (stereo not drawn)
dose: 25.0 mg/kg/injection, schedule: Q01DX009 (ip), vehicle: water
  T/C: 109 % of control
dose: 50.0 mg/kg/injection, schedule: Q01DX009 (ip), vehicle: water
  T/C: 120 % of control
dose: 50.0 mg/kg/injection, schedule: Q04DX003 (ip), vehicle: water
  T/C: 101 % of control
dose: 100.0 mg/kg/injection, schedule: Q01DX009 (ip), vehicle: water
  T/C: 92 % of control
dose: 100.0 mg/kg/injection, schedule: Q04DX003 (ip), vehicle: water
  T/C: 86 % of control
dose: 200.0 mg/kg/injection, schedule: Q01DX009 (ip), vehicle: water
  T/C: 91 % of control
dose: 200.0 mg/kg/injection, schedule: Q04DX003 (ip), vehicle: water
  T/C: 109 % of control
dose: 400.0 mg/kg/injection, schedule: Q01DX009 (ip), vehicle: water
  T/C: 94 % of control
dose: 400.0 mg/kg/injection, schedule: Q04DX003 (ip), vehicle: water
  T/C: 101 % of control

## CC(N)c1ccccc1 (stereo not drawn) (tested in a mixture with another compound)
[4]
  T/C: 96 % of control
[5]
  T/C: 104 % of control
[6]
  T/C: 95 % of control

## N#C/C(=C\c1cc(Cl)cc(Cl)c1O)C(/C(C#N)=C/c1cc(Cl)cc(Cl)c1O)c1ccc2c(c1)OCO2 (stereo not drawn)
[1]
  T/C: 91 % of control
[2]
  T/C: 100 % of control
[3]
  T/C: 108 % of control

## CCOC(=O)CCN1CCCC1
[5]
  T/C: 100 % of control
dose: 100.0 mg/kg/injection, schedule: Q04DX003 (ip), vehicle: saline
  T/C: 100 % of control
[6]
  T/C: 91 % of control
[7]
  T/C: 100 % of control
[8]
  T/C: 100 % of control
dose: 400.0 mg/kg/injection, schedule: Q04DX003 (ip), vehicle: saline
  T/C: 95 % of control

## O=Cc1ccc(N(c2ccccc2)c2ccccc2)cc1
[9]
  T/C: 111 % of control
[10]
  T/C: 111 % of control
[11]
  T/C: 94 % of control

## CC(=N\O)/C(C)=N/O.CC(=N\O)/C(C)=N/O.CC1CC[N-]CC1.CC1CC[N-]CC1.CC1CC[N-]CC1.CC1CC[N-]CC1.[Cl][Rh][Cl].[Pt+2]
dose: 0.39 mg/kg/injection, schedule: Q01DX009 (ip), vehicle: water
  T/C: 110 % of control
dose: 0.78 mg/kg/injection, schedule: Q01DX009 (ip), vehicle: water
  T/C: 110 % of control
dose: 1.56 mg/kg/injection, schedule: Q01DX009 (ip), vehicle: water
  T/C: 98 % of control
dose: 6.25 mg/kg/injection, schedule: Q01DX009 (ip), vehicle: water
  T/C: 94 % of control
dose: 12.5 mg/kg/injection, schedule: Q01DX009 (ip), vehicle: water
  T/C: 99 % of control

## CCC(C)C(O)C(C(=O)O)C1CCCCC1 (stereo not drawn)
dose: 50.0 mg/kg/injection, schedule: Q01DX005 (ip), vehicle: saline with Tween-80
  T/C: 100 % of control
dose: 100.0 mg/kg/injection, schedule: Q01DX005 (ip), vehicle: saline with Tween-80
  T/C: 95 % of control
dose: 200.0 mg/kg/injection, schedule: Q01DX005 (ip), vehicle: saline with Tween-80
  T/C: 86 % of control

## CC(=O)OC1CCC2(C)C(CCC3(C)C2CC=C2C4C(C)C(C)CCC4(C)CCC23C)C1(C)C (stereo not drawn)
[9]
  T/C: 100 % of control
[10]
  T/C: 100 % of control
[11]
  T/C: 90 % of control

## CCOC(=O)C(C#N)C(C(C)=O)C(=O)OCC (stereo not drawn)
[12]
  T/C: 118 % of control
dose: 25.0 mg/kg/injection, schedule: Q04DX003 (ip), vehicle: saline sonified
  T/C: 95 % of control
[13]
  T/C: 90 % of control
dose: 50.0 mg/kg/injection, schedule: Q04DX003 (ip), vehicle: saline sonified
  T/C: 100 % of control
dose: 100.0 mg/kg/injection, schedule: Q04DX003 (ip), vehicle: saline sonified
  T/C: 104 % of control

## CCCCN(C)N=Nc1ccc(CCCC(=O)OCC)cc1
dose: 12.5 mg/kg/injection, schedule: Q01DX009 (ip), vehicle: saline with Tween-80
  T/C: 91 % of control
[12]
  T/C: 100 % of control
[13]
  T/C: 117 % of control
dose: 132.0 mg/kg/injection, schedule: Q04DX003 (ip), vehicle: saline
  T/C: 95 % of control
[7]
  T/C: 156 % of control
dose: 300.0 mg/kg/injection, schedule: Q04DX003 (ip), vehicle: saline
  T/C: 121 % of control

## CS(=O)(=O)OCCNC[C@@H](O)[C@@H](O)CNCCOS(C)(=O)=O
dose: 0.17 mg/kg/injection, schedule: Q04DX003 (ip), vehicle: saline
  T/C: 121 % of control
dose: 0.26 mg/kg/injection, schedule: Q04DX003 (ip), vehicle: saline
  T/C: 117 % of control
dose: 0.4 mg/kg/injection, schedule: Q04DX003 (ip), vehicle: saline
  T/C: 154 % of control
dose: 0.6 mg/kg/injection, schedule: Q04DX003 (ip), vehicle: saline
  T/C: 170 % of control
dose: 0.92 mg/kg/injection, schedule: Q04DX003 (ip), vehicle: saline
  T/C: 175 % of control
dose: 1.3 mg/kg/injection, schedule: Q04DX003 (ip), vehicle: saline
  T/C: 175 % of control
dose: 2.1 mg/kg/injection, schedule: Q04DX003 (ip), vehicle: saline
  T/C: 186 % of control
dose: 3.1 mg/kg/injection, schedule: Q04DX003 (ip), vehicle: saline
  T/C: 168 % of control
dose: 11.0 mg/kg/injection, schedule: Q04DX003 (ip), vehicle: saline
  T/C: 200 % of control
dose: 16.0 mg/kg/injection, schedule: Q04DX003 (ip), vehicle: saline
  T/C: 243 % of control
dose: 33.0 mg/kg/injection, schedule: Q04DX003 (ip), vehicle: saline
  T/C: 300 % of control and 118 % of control

## CC(C(N)C(=O)O)C(O)c1ccc(O)cn1 (stereo not drawn)
dose: 45.0 mg/kg/injection, schedule: Q01DX009 (ip), vehicle: water
  T/C: 109 % of control
dose: 90.0 mg/kg/injection, schedule: Q01DX009 (ip), vehicle: water
  T/C: 102 % of control
dose: 180.0 mg/kg/injection, schedule: Q01DX009 (ip), vehicle: water
  T/C: 102 % of control

## OCC1OC(O)C(O)C(O)C1O (stereo not drawn)
dose: 500.0 mg/kg/injection, schedule: Q01DX009 (ip), vehicle: saline
  T/C: 124 % of control
dose: 500.0 mg/kg/injection, schedule: Q04DX003 (ip), vehicle: saline
  T/C: 100 % of control
dose: 1000.0 mg/kg/injection, schedule: Q01DX009 (ip), vehicle: saline
  T/C: 117 % of control
dose: 1000.0 mg/kg/injection, schedule: Q04DX003 (ip), vehicle: saline
  T/C: 100 % of control
dose: 2000.0 mg/kg/injection, schedule: Q01DX009 (ip), vehicle: saline
  T/C: 120 % of control
dose: 2000.0 mg/kg/injection, schedule: Q04DX003 (ip), vehicle: saline
  T/C: 100 % of control
dose: 4000.0 mg/kg/injection, schedule: Q01DX009 (ip), vehicle: saline
  T/C: 100 % of control
dose: 4000.0 mg/kg/injection, schedule: Q04DX003 (ip), vehicle: saline
  T/C: 102 % of control

## CC(C)=C=CCN(C)Cc1ccccc1
[4]
  T/C: 99 % of control
[5]
  T/C: 103 % of control

## Nc1cc(Nc2cccc(Cl)c2)nc(N)n1
[13]
  T/C: 86 % of control

## CC/C(=N\NS(=O)(=O)c1ccc(C)cc1)c1ccc(OC)cc1
[4]
  T/C: 92 % of control
[5]
  T/C: 104 % of control
[6]
  T/C: 93 % of control

## CCCCCCCCCCCC(=O)CCCCC
dose: 100.0 mg/kg/injection, schedule: Q04DX003 (ip), vehicle: other
  T/C: 100 % of control
dose: 200.0 mg/kg/injection, schedule: Q04DX003 (ip), vehicle: other
  T/C: 100 % of control
dose: 400.0 mg/kg/injection, schedule: Q04DX003 (ip), vehicle: other
  T/C: 104 % of control

## S=c1[nH]ccn2cnnc12
dose: 100.0 mg/kg/injection, schedule: Q01DX001 (ip), vehicle: saline with Tween-80
  T/C: 88 % of control
dose: 200.0 mg/kg/injection, schedule: Q01DX001 (ip), vehicle: saline with Tween-80
  T/C: 106 % of control
dose: 400.0 mg/kg/injection, schedule: Q01DX001 (ip), vehicle: saline with Tween-80
  T/C: 100 % of control

## C[N+](C)(C)CCOC(=O)c1ccccc1
dose: 100.0 mg/kg/injection, schedule: Q01DX009 (ip), vehicle: saline with Tween-80
  T/C: 109 % of control
dose: 200.0 mg/kg/injection, schedule: Q01DX009 (ip), vehicle: saline with Tween-80
  T/C: 117 % of control
dose: 400.0 mg/kg/injection, schedule: Q01DX009 (ip), vehicle: saline with Tween-80
  T/C: 102 % of control

## O=C1c2ccccc2C(=O)c2c(O)c(N3CCCCC3)cc(O)c21
[4]
  T/C: 93 % of control
[5]
  T/C: 97 % of control
[1]
  T/C: 98 % of control
[6]
  T/C: 95 % of control
[2]
  T/C: 109 % of control
[8]
  T/C: 93 % of control
[3]
  T/C: 106 % of control
